Laboratory results as given in US20150038707A1, “PROCESS FOR MAKING CGRP RECEPTOR ANTAGONISTS” (Merck Sharp & Dohme Corp., priority 2012, published 2015).

Legend:
[1] = tested on: female Aedes aegypti (Thailand strain) mosquitoes; assay: Contact irritancy and spatial repellency screening (Example 4); assay type: in vivo; conditions: Dosage 25 nmol/cm^2; mapped with 3000 other compounds
Experimental: (§1) Four compounds of formula (I) were tested for contact irritancy (i.e., movement away from the source after physical contact) at low doses on female Aedes aegypti (Thailand strain) mosquitoes. The contact irritant response was determined by use of the contact irritant assay disclosed by Grieco et al. in “A New Classification System for the Actions of IRS Chemicals Traditionally Used for Malaria Control,” Plos One, Issue 8 (2007) (available at www.plosone.org). The assay used was a cylindrical assembly that included a metal treatment end to which 10 mosquitoes were introduced and a clear receiving chamber. The treatment end included a netting strip (nylon organdy) that was treated with the insecticide of interest at the relevant dose. A butterfly valve separated the treatment end from the remainder of the assembly.
The four compounds of formula I described in Example 2 were tested for spatial repellency (directed movement away from the chemical source without the insect making physical contact with the treated surface) at low doses on female Aedes aegypti (Thailand strain) mosquitoes. The spatial repellency response was determined by use of the spatial repellency assay disclosed by Grieco et al. in “A New Classification System for the Actions of IRS Chemicals Traditionally Used for Malaria Control” in Plos One, Issue 8 (2007) (available at www.plosone.org) which is incorporated herein by reference for all relevant and consistent purposes. The assay used was a cylindrical assembly that included a treatment chamber at one end and a control chamber at the other end. The treatment chamber included a netting strip (nylon organdy) that was treated with the insecticide of interest at the relevant dose. The treatment chamber and control chamber were connected by a clear cylinder and were separated from the clear cylinder by butterfly valves. Twenty (20) mosquitoes were introduced into the clear central chamber and the butterfly valves were opened after 30 seconds. After 10 minutes, the valves were closed and the number of mosquitoes in each chamber was counted.
Dosage was 25 nmol/cm^2. Several known compounds were also mapped for comparison—alphacypermethrin, cypermethrin, propoxur, bendiocarb, permethrin, SS220, DDT, deet and chlorpyrifos.

[2] = tested on: Ae. aegypti Thai strain (pyrethroid tolerant); assay: Toxicity assay on treated netting (Example 7), Thai strain; assay type: in vivo
Experimental: Several compounds were tested to determine their toxic effect on Ae. aegypti mosquitoes. Three mosquito strains were tested—Houston which is pyrethroid susceptible, That which is pyrethroid tolerant and Isla Mujer which is metabolically pyrethroid resistant.
The toxicity assay involved a single chamber to which treated netting was added. Twenty (20) mosquitoes were transferred to the chamber. After 1 hour, the number of knocked down mosquitoes was recorded and all mosquitoes were transferred to holding cartoons. The mosquitoes were given a 10% sucrose-soaked cotton ball and returned to the insectary. Mortaility was measured after 24 hours. A control assay using acetone-treated netting was used. Six replicates were performed at each treatment concentration.

[3] = tested on: female Aedes aegypti (Thailand strain) mosquitoes; assay: Contact irritancy assay on mosquitoes (Example 2); assay type: in vivo; conditions: netting treated at 0.0025-2.5 nmol/cm^2; 10 minutes
Experimental: as §1
Each composition was applied to the netting strip at a varied dose via a 1.5 ml acetone solution. Four (4) treatment concentrations were used—0.0025 nmol/cm^2, 0.025 nmol/cm^2, 0.25 nmol/cm^2 and 2.5 nmol/cm^2. Netting was allowed to dry for 15 minutes prior to placement in the cylinder. Control assays were performed with netting treated with acetone only.
For each run, 10 mosquitoes were transferred into the treatment end of the assembly and, after 30 seconds, the butterfly valve was opened. The valve was closed after 10 minutes and the number of mosquitoes in the clear end (i.e., the number of escaped mosquitoes) was tested.

KDR Resisant An. Gambiae = assay: Bottle toxicity assay (Example 8), knockdown resistant mosquitoes; assay type: in vivo, Anopheles gambiae; conditions: for effectiveness against knockdown resistant strains: summary of Table 3
Experimental: Several compounds were tested to determine their toxic effect on knockdown resistant Anopheles gambiae mosquitoes and susceptible mosquitoes. Acetone and different amounts of pesticides were added to 250 ml bottles. In one bottle, only acetone was added as a control. The bottles were rotated in all directions while uncapped until all acetone was evaporated and the insecticide was coated onto the inside surfaces of the bottle. A number of knockdown resistant Anopheles gambiae mosquitoes were added to the bottle. The number of dead mosquitoes was recorded at 1 hour and 24 hours.

An. Vestitipennis = assay: Repellency field studies in experimental huts, Belize (Example 12); assay type: in vivo; conditions: for Reduction (%) vs control hut / Number Collected in Entrance: 2.5 nmole; for Number Collected in Entrance: treated hut
Experimental: Compound 1405 was tested in field studies in Belize at a concentration of 2.5 nmole/cm^2. The field studies involved use of huts that were equipped with entrance and exit traps. The hut design and collection procedures correspond to those disclosed by Suwonkerd et al. in “The Effect of Host Type on Movement Patters of Aedes aegypti (Diptera: Culicidae) into and out of Experimental Huts in Thailand,” J. Vector. Ecol., vol. 31 (2), p. 311-318 (2006) which is incorporated herein by reference for all relevant and consistent purposes. The huts were equipped with entrance and/or exit traps at entry and exit points (e.g., windows and doors). The huts were randomized and designated as control (no treatment) or treated (with some intervention being evaluated). The relative numbers of mosquitoes entering or leaving the treated vs. control huts was determined. An. Vestitipennis, An. Albimanus, An. Punctimacula, An. Crucians and a large number of other culicines were collected in the traps. An. Vestitipennis comprised the majority of what was collected.

[4] = Dose 0.025 nm/cm^2, Time 1 hour
[5] = Dose 0.025 nm/cm^2, Time 24 hours
[6] = Dose 0.0725 nm/cm^2, Time 1 hour
[7] = Dose 0.0725 nm/cm^2, Time 24 hours
[8] = Dose 2.5 nm/cm^2, Time 24 hours
[9] = Dose 0.025 μg/bottle, Strain Tested F122, Time 1 hour
[10] = Dose 0.025 μg/bottle, Strain Tested F122, Time 24 hours
[11] = Dose 0.025 μg/bottle, Strain Tested F123, Time 1 hour
[12] = Dose 0.025 μg/bottle, Strain Tested F123, Time 24 hours
[13] = Dose 0.25 μg/bottle, Strain Tested F122, Time 1 hour
[14] = Dose 0.25 μg/bottle, Strain Tested F122, Time 24 hours
[15] = Dose 0.25 μg/bottle, Strain Tested F123, Time 1 hour
[16] = Dose 0.25 μg/bottle, Strain Tested F123, Time 24 hours
[17] = Dose 2.5 μg/bottle, Strain Tested F122, Time 1 hour
[18] = Dose 2.5 μg/bottle, Strain Tested F122, Time 24 hours
[19] = Dose 2.5 μg/bottle, Strain Tested F123, Time 1 hour
[20] = Dose 2.5 μg/bottle, Strain Tested F123, Time 24 hours

## CC1(C)C(C=C(Cl)Cl)C1C(=O)OCc1ccc(F)c(C(F)(F)F)c1F (centres unmarked) [Compound 1406]
[1]
  contact irritancy and spatial repellency relative to screened compounds (FIG. 3): superior contact irritancy and spatial repellency relative to most screened compounds
[2]; [4]
  Thai (% dead (SE)): 100%
[2]; [5]
  Thai (% dead (SE)): 98.3%
[2]; [6]
  Thai (% dead (SE)): 100%
[2]; [7]
  Thai (% dead (SE)): 100%
[2]; Dose 0.25 nm/cm^2, Time 1 hour
  Thai (% dead (SE)): 96.6%
[2]; Dose 0.25 nm/cm^2, Time 24 hours
  Thai (% dead (SE)): 100%
[2]; Dose 2.5 nm/cm^2, Time 1 hour
  Thai (% dead (SE)): 100%
[2]; [8]
  Thai (% dead (SE)): 100%
[3]
  contact irritancy (FIG. 1): showed contact irritancy at relatively low doses
KDR Resisant An. Gambiae; [9]
  KDR Resisant An. Gambiae (% dead (SE)): 100%
KDR Resisant An. Gambiae; [10]
  KDR Resisant An. Gambiae (% dead (SE)): 100%
KDR Resisant An. Gambiae; [11]
  KDR Resisant An. Gambiae (% dead (SE)): 100%
KDR Resisant An. Gambiae; [12]
  KDR Resisant An. Gambiae (% dead (SE)): 100%
KDR Resisant An. Gambiae; [13]
  KDR Resisant An. Gambiae (% dead (SE)): 100%
KDR Resisant An. Gambiae; [14]
  KDR Resisant An. Gambiae (% dead (SE)): 100%
KDR Resisant An. Gambiae; [15]
  KDR Resisant An. Gambiae (% dead (SE)): 100%
KDR Resisant An. Gambiae; [16]
  KDR Resisant An. Gambiae (% dead (SE)): 100%
KDR Resisant An. Gambiae; [17]
  KDR Resisant An. Gambiae (% dead (SE)): 100%
KDR Resisant An. Gambiae; [18]
  KDR Resisant An. Gambiae (% dead (SE)): 100%
KDR Resisant An. Gambiae; [19]
  KDR Resisant An. Gambiae (% dead (SE)): 100%
KDR Resisant An. Gambiae; [20]
  KDR Resisant An. Gambiae (% dead (SE)): 100%
KDR Resisant An. Gambiae
  effectiveness against knockdown resistant strains: effective against knockdown resistant strains

## CC1(C)C(C=C(Cl)C(F)(F)F)C1C(=O)OCc1ccc(F)c(C(F)(F)F)c1F (centres unmarked) [Compound 1405]
[1]
  contact irritancy and spatial repellency relative to screened compounds (FIG. 3): superior contact irritancy and spatial repellency relative to most screened compounds
[2]; [4]
  Thai (% dead (SE)): 83.3%
[2]; [5]
  Thai (% dead (SE)): 15%
[2]; [6]
  Thai (% dead (SE)): 100%
[2]; [7]
  Thai (% dead (SE)): 100%
[2]; Dose 0.125 nm/cm^2, Time 1 hour
  Thai (% dead (SE)): 100%
[2]; Dose 0.125 nm/cm^2, Time 24 hours
  Thai (% dead (SE)): 100%
[2]; Dose 2.5 nm/cm^2, Time 1 hour
  Thai (% dead (SE)): 100%
[2]; [8]
  Thai (% dead (SE)): 100%
An. Vestitipennis; 2.5 nmole/cm^2, four day study
  effectiveness as a repellent in field huts (FIGS. 6-9): extremely effective as a repellent
An. Vestitipennis; Day 1
  Reduction (%) vs control hut: 97%
  Number Collected in Entrance: 37
An. Vestitipennis; Day 2
  Reduction (%) vs control hut: 84%
  Number Collected in Entrance: 99
An. Vestitipennis; Day 3
  Reduction (%) vs control hut: 66%
  Number Collected in Entrance: 173
An. Vestitipennis; Day 4
  Reduction (%) vs control hut: 65%
  Number Collected in Entrance: 232
An. Vestitipennis; Total of days 1-4
  Reduction (%) vs control hut: 82%
  Number Collected in Entrance: 541
[3]
  contact irritancy (FIG. 1): showed contact irritancy at relatively low doses
KDR Resisant An. Gambiae; Dose 0.00025 μg/bottle, Strain Tested F123, Time 1 hour
  KDR Resisant An. Gambiae (% dead (SE)): 55%
KDR Resisant An. Gambiae; Dose 0.00025 μg/bottle, Strain Tested F123, Time 24 hours
  KDR Resisant An. Gambiae (% dead (SE)): 37%
KDR Resisant An. Gambiae; Dose 0.0025 μg/bottle, Strain Tested F122, Time 1 hour
  KDR Resisant An. Gambiae (% dead (SE)): 100%
KDR Resisant An. Gambiae; Dose 0.0025 μg/bottle, Strain Tested F122, Time 24 hours
  KDR Resisant An. Gambiae (% dead (SE)): 66%
KDR Resisant An. Gambiae; Dose 0.0025 μg/bottle, Strain Tested F123, Time 1 hour
  KDR Resisant An. Gambiae (% dead (SE)): 92%
KDR Resisant An. Gambiae; Dose 0.0025 μg/bottle, Strain Tested F123, Time 24 hours
  KDR Resisant An. Gambiae (% dead (SE)): 100%
KDR Resisant An. Gambiae; [9]
  KDR Resisant An. Gambiae (% dead (SE)): 100%
KDR Resisant An. Gambiae; [10]
  KDR Resisant An. Gambiae (% dead (SE)): 100%
KDR Resisant An. Gambiae; [11]
  KDR Resisant An. Gambiae (% dead (SE)): 100%
KDR Resisant An. Gambiae; [12]
  KDR Resisant An. Gambiae (% dead (SE)): 100%
KDR Resisant An. Gambiae; [13]
  KDR Resisant An. Gambiae (% dead (SE)): 100%
KDR Resisant An. Gambiae; [14]
  KDR Resisant An. Gambiae (% dead (SE)): 100%
KDR Resisant An. Gambiae; [15]
  KDR Resisant An. Gambiae (% dead (SE)): 100%
KDR Resisant An. Gambiae; [16]
  KDR Resisant An. Gambiae (% dead (SE)): 100%
KDR Resisant An. Gambiae; [17]
  KDR Resisant An. Gambiae (% dead (SE)): 100%
KDR Resisant An. Gambiae; [18]
  KDR Resisant An. Gambiae (% dead (SE)): 100%
KDR Resisant An. Gambiae; [19]
  KDR Resisant An. Gambiae (% dead (SE)): 100%
KDR Resisant An. Gambiae; [20]
  KDR Resisant An. Gambiae (% dead (SE)): 100%
KDR Resisant An. Gambiae; Dose 25 μg/bottle, Strain Tested F123, Time 1 hour
  KDR Resisant An. Gambiae (% dead (SE)): 100%
KDR Resisant An. Gambiae; Dose 25 μg/bottle, Strain Tested F123, Time 24 hours
  KDR Resisant An. Gambiae (% dead (SE)): 100%
KDR Resisant An. Gambiae
  effectiveness against knockdown resistant strains: effective against knockdown resistant strains
